Experimental data reported in patent US20240358693A1, “METHODS OF TREATING PAIN” (Aisa Pharma, Inc., priority 2023, published 2024).

Tested on: participants with SSc-RP
Assay: Scleroderma Health Assessment Questionnaire (SHAQ): disability indices and visual analog scales
Assay type: in vivo, human
Summary of the method: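 Participants with SSc-RP completed the SHAQ at screening and each in-clinic visit. Standard and alternative disability indices (eight categories, 0–3; standard adjusts for aids/assistance) plus Raynaud's VAS on interference over the past 7 days. Reported as absolute change from baseline to end of each dosing period.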

[1] = Pooled Cilnidipine 10 mg and Cilnidipine 10 mg + Tadalafil 5 mg (N = 9), sensitivity analysis, Modified ITT, Part A
[2] = Pooled Cilnidipine 20 mg and Cilnidipine 20 mg + Tadalafil 5 mg (N = 7), sensitivity analysis, Modified ITT, Part A
[3] = Pooled Cilnidipine (10 mg or 20 mg) (N = 7)
[4] = Pooled Cilnidipine (10 mg or 20 mg) (N = 7), n 6
[5] = Pooled Cilnidipine (N = 6), Day 12, Modified ITT, SSc patients, Part A
[6] = Pooled Cilnidipine (N = 7), sensitivity analysis, Modified ITT, Part A

SMILES: COCCOC(=O)C1=C(C)NC(C)=C(C(=O)OC/C=C/c2ccccc2)C1c1cccc([N+](=O)[O-])c1 (stereo not drawn) [Cilnidipine, cilnidipine]
- SHAQ VAS Raynaud's: Percent Change from Baseline, Mean [1]: −9.97%
- SHAQ VAS Raynaud's: Percent Change from Baseline, Median [1]: −4.39%
- SHAQ Standard Disability Index: Baseline, Mean [2]: 0.554
- SHAQ Standard Disability Index: Baseline, Median [2]: 0.375
- SHAQ Standard Disability Index: Change from Baseline, Mean [2]: −0.092
- SHAQ Standard Disability Index: Change from Baseline, Median [2]: 0.000
- SHAQ Standard Disability Index: Day 12, Mean [2]: 0.462
- SHAQ Standard Disability Index: Day 12, Median [2]: 0.250
- SHAQ Standard Disability Index: Percent Change from Baseline, Mean [2]: −5.99%
- SHAQ Standard Disability Index: Percent Change from Baseline, Median [2]: −33.33%
- SHAQ VAS Breathing Problems: Baseline, Mean [2]: 1.071
- SHAQ VAS Breathing Problems: Baseline, Median [2]: 0.800
- SHAQ VAS Breathing Problems: Change from Baseline, Mean [2]: 0.171
- SHAQ VAS Breathing Problems: Change from Baseline, Median [2]: 0.000
- SHAQ VAS Breathing Problems: Day 12, Mean [2]: 1.243
- SHAQ VAS Breathing Problems: Day 12, Median [2]: 0.400
- SHAQ VAS Breathing Problems: Percent Change from Baseline, Mean [2]: 103.99%
- SHAQ VAS Breathing Problems: Percent Change from Baseline, Median [2]: 24.48%
- SHAQ VAS Finger Ulcers: Baseline, Mean [2]: 1.986
- SHAQ VAS Finger Ulcers: Baseline, Median [2]: 0.100
- SHAQ VAS Finger Ulcers: Change from Baseline, Mean [2]: −0.950
- SHAQ VAS Finger Ulcers: Change from Baseline, Median [2]: −0.050
- SHAQ VAS Finger Ulcers: Day 12, Mean [2]: 1.367
- SHAQ VAS Finger Ulcers: Day 12, Median [2]: 0.350
- SHAQ VAS Finger Ulcers: Percent Change from Baseline, Mean [2]: −15.69%
- SHAQ VAS Finger Ulcers: Percent Change from Baseline, Median [2]: −48.04%
- SHAQ VAS Intestinal Problems: Baseline, Mean [2]: 0.886
- SHAQ VAS Intestinal Problems: Baseline, Median [2]: 1.000
- SHAQ VAS Intestinal Problems: Change from Baseline, Mean [2]: 0.271
- SHAQ VAS Intestinal Problems: Change from Baseline, Median [2]: 0.000
- SHAQ VAS Intestinal Problems: Day 12, Mean [2]: 1.157
- SHAQ VAS Intestinal Problems: Day 12, Median [2]: 0.200
- SHAQ VAS Intestinal Problems: Percent Change from Baseline, Mean [2]: 12.47%
- SHAQ VAS Intestinal Problems: Percent Change from Baseline, Median [2]: 30.00%
- SHAQ VAS Overall Disease Severity: Baseline, Mean [2]: 3.200
- SHAQ VAS Overall Disease Severity: Baseline, Median [2]: 2.900
- SHAQ VAS Overall Disease Severity: Change from Baseline, Mean [2]: −1.186
- SHAQ VAS Overall Disease Severity: Change from Baseline, Median [2]: −1.500
- SHAQ VAS Overall Disease Severity: Day 12, Mean [2]: 2.014
- SHAQ VAS Overall Disease Severity: Day 12, Median [2]: 1.200
- SHAQ VAS Overall Disease Severity: Percent Change from Baseline, Mean [2]: −44.99%
- SHAQ VAS Overall Disease Severity: Percent Change from Baseline, Median [2]: −44.74%
- SHAQ VAS Pain: Baseline, Mean [2]: 2.667
- SHAQ VAS Pain: Baseline, Median [2]: 2.550
- SHAQ VAS Pain: Change from Baseline, Mean [2]: −0.700
- SHAQ VAS Pain: Change from Baseline, Median [2]: −0.650
- SHAQ VAS Pain: Day 12, Mean [2]: 2.000
- SHAQ VAS Pain: Day 12, Median [2]: 2.100
- SHAQ VAS Pain: Percent Change from Baseline, Mean [2]: −33.40%
- SHAQ VAS Pain: Percent Change from Baseline, Median [2]: −51.06%
- SHAQ VAS Raynaud's: Baseline, Mean [2]: 2.314
- SHAQ VAS Raynaud's: Baseline, Median [2]: 0.900
- SHAQ VAS Raynaud's: Change from Baseline, Mean [2]: −1.014
- SHAQ VAS Raynaud's: Change from Baseline, Median [2]: −0.300
- SHAQ VAS Raynaud's: Day 12, Mean [2]: 1.300
- SHAQ VAS Raynaud's: Day 12, Median [2]: 0.600
- SHAQ VAS Raynaud's: Percent Change from Baseline, Mean [2]: −34.71%
- SHAQ VAS Raynaud's: Percent Change from Baseline, Median [2]: −40.67%
- SHAQ patient reported disease severity, Change from Baseline, Mean [3]: −1.214
- SHAQ patient reported disease severity, Change from Baseline, Median [3]: −1.500
- SHAQ patient reported disease severity, In-Clinic Visit (Day 12), Mean [3]: 1.486
- SHAQ patient reported disease severity, In-Clinic Visit (Day 12), Median [3]: 1.200
- SHAQ patient reported disease severity, Percent Change from Baseline, Mean [4]: −59.80%
- SHAQ patient reported disease severity, Percent Change from Baseline, Median [4]: −55.86%
- SHAQ Alternative Disability Index: Change from Baseline, Mean [5]: 0.000
- SHAQ Alternative Disability Index: Change from Baseline, Median [5]: −0.063
- SHAQ Alternative Disability Index: In-Clinic Visit (Day 12), Mean [5]: 0.438
- SHAQ Alternative Disability Index: In-Clinic Visit (Day 12), Median [5]: 0.188
- SHAQ Alternative Disability Index: Percent Change from Baseline, Mean [5]: −12.90%
- SHAQ Alternative Disability Index: Percent Change from Baseline, Median [5]: −22.22%
- SHAQ Standard Disability Index: Change from Baseline, Mean [5]: −0.063
- SHAQ Standard Disability Index: Change from Baseline, Median [5]: 0.000
- SHAQ Standard Disability Index: In-Clinic Visit (Day 12), Mean [5]: 0.500
- SHAQ Standard Disability Index: In-Clinic Visit (Day 12), Median [5]: 0.188
- SHAQ Standard Disability Index: Percent Change from Baseline, Mean [5]: −25.00%
- SHAQ Standard Disability Index: Percent Change from Baseline, Median [5]: −16.67%
- SHAQ Visual Analogue Scale - Breathing Problems: Change from Baseline, Mean [5]: −0.617
- SHAQ Visual Analogue Scale - Breathing Problems: Change from Baseline, Median [5]: −0.400
- SHAQ Visual Analogue Scale - Breathing Problems: In-Clinic Visit (Day 12), Mean [5]: 1.200
- SHAQ Visual Analogue Scale - Breathing Problems: In-Clinic Visit (Day 12), Median [5]: 0.200
- SHAQ Visual Analogue Scale - Breathing Problems: Percent Change from Baseline, Mean [5]: −8.17%
- SHAQ Visual Analogue Scale - Breathing Problems: Percent Change from Baseline, Median [5]: −41.33%
- SHAQ Visual Analogue Scale - Finger Ulcers: Change from Baseline, Mean [5]: −0.750
- SHAQ Visual Analogue Scale - Finger Ulcers: Change from Baseline, Median [5]: −0.350
- SHAQ Visual Analogue Scale - Finger Ulcers: In-Clinic Visit (Day 12), Mean [5]: 0.617
- SHAQ Visual Analogue Scale - Finger Ulcers: In-Clinic Visit (Day 12), Median [5]: 0.350
- SHAQ Visual Analogue Scale - Finger Ulcers: Percent Change from Baseline, Mean [5]: −17.08%
- SHAQ Visual Analogue Scale - Finger Ulcers: Percent Change from Baseline, Median [5]: −50.82%
- SHAQ Visual Analogue Scale - Intestinal Problems: Change from Baseline, Mean [5]: −1.083
- SHAQ Visual Analogue Scale - Intestinal Problems: Change from Baseline, Median [5]: 0.000
- SHAQ Visual Analogue Scale - Intestinal Problems: In-Clinic Visit (Day 12), Mean [5]: 1.300
- SHAQ Visual Analogue Scale - Intestinal Problems: In-Clinic Visit (Day 12), Median [5]: 0.950
- SHAQ Visual Analogue Scale - Intestinal Problems: Percent Change from Baseline, Mean [5]: −15.53%
- SHAQ Visual Analogue Scale - Intestinal Problems: Percent Change from Baseline, Median [5]: −7.06%
- SHAQ Visual Analogue Scale - Overall Disease Severity: Change from Baseline, Mean [5]: −1.350
- SHAQ Visual Analogue Scale - Overall Disease Severity: Change from Baseline, Median [5]: −1.550
- SHAQ Visual Analogue Scale - Overall Disease Severity: In-Clinic Visit (Day 12), Mean [5]: 1.733
- SHAQ Visual Analogue Scale - Overall Disease Severity: In-Clinic Visit (Day 12), Median [5]: 1.300
- SHAQ Visual Analogue Scale - Overall Disease Severity: Percent Change from Baseline, Mean [5]: −51.76%
- SHAQ Visual Analogue Scale - Overall Disease Severity: Percent Change from Baseline, Median [5]: −51.72%
- SHAQ Visual Analogue Scale - Pain: Change from Baseline, Mean [5]: −0.500
- SHAQ Visual Analogue Scale - Pain: Change from Baseline, Median [5]: −0.250
- SHAQ Visual Analogue Scale - Pain: In-Clinic Visit (Day 12), Mean [5]: 1.617
- SHAQ Visual Analogue Scale - Pain: In-Clinic Visit (Day 12), Median [5]: 1.400
- SHAQ Visual Analogue Scale - Pain: Percent Change from Baseline, Mean [5]: −29.23%
- SHAQ Visual Analogue Scale - Pain: Percent Change from Baseline, Median [5]: −48.78%
- SHAQ Visual Analogue Scale - Raynaud's: Change from Baseline, Mean [5]: −0.550
- SHAQ Visual Analogue Scale - Raynaud's: Change from Baseline, Median [5]: −0.600
- SHAQ Visual Analogue Scale - Raynaud's: In-Clinic Visit (Day 12), Mean [5]: 1.667
- SHAQ Visual Analogue Scale - Raynaud's: In-Clinic Visit (Day 12), Median [5]: 1.250
- SHAQ Visual Analogue Scale - Raynaud's: Percent Change from Baseline, Mean [5]: −18.64%
- SHAQ Visual Analogue Scale - Raynaud's: Percent Change from Baseline, Median [5]: −38.67%
- SHAQ Standard Disability Index: Baseline, Mean [6]: 0.482
- SHAQ Standard Disability Index: Baseline, Median [6]: 0.375
- SHAQ Standard Disability Index: Change from Baseline, Mean [6]: −0.054
- SHAQ Standard Disability Index: Change from Baseline, Median [6]: 0.000
- SHAQ Standard Disability Index: Day 12, Mean [6]: 0.429
- SHAQ Standard Disability Index: Day 12, Median [6]: 0.125
- SHAQ Standard Disability Index: Percent Change from Baseline, Mean [6]: −25.00%
- SHAQ Standard Disability Index: Percent Change from Baseline, Median [6]: −16.67%
- SHAQ VAS Breathing Problems: Baseline, Mean [6]: 1.557
- SHAQ VAS Breathing Problems: Baseline, Median [6]: 0.200
- SHAQ VAS Breathing Problems: Change from Baseline, Mean [6]: −0.529
